What all share (assay type): functional
Assay [1] deals with T1, Tyrosine-protein phosphatase non-receptor type 7 (Homo sapiens, UniProt P35236).
T1 sequence (P35236 whole entry): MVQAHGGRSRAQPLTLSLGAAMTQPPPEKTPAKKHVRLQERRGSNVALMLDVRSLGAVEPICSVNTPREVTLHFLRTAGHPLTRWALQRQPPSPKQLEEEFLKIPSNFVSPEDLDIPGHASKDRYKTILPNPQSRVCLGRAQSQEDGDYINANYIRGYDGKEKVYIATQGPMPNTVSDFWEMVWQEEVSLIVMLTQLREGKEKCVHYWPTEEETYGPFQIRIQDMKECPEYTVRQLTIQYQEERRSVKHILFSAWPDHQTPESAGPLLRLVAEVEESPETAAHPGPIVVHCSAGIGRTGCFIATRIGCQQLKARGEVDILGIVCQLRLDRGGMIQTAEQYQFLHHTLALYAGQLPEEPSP
The assay can be described thus: HePTP (PTPN7) phosphatase inhibitor potency, SAR follow-up, biochemical, set 2 (AID 449736).

Assay [2] deals with T2, Protein RecA (Mycobacterium tuberculosis, UniProt P9WHJ3).
T2 sequence (P9WHJ3 whole entry): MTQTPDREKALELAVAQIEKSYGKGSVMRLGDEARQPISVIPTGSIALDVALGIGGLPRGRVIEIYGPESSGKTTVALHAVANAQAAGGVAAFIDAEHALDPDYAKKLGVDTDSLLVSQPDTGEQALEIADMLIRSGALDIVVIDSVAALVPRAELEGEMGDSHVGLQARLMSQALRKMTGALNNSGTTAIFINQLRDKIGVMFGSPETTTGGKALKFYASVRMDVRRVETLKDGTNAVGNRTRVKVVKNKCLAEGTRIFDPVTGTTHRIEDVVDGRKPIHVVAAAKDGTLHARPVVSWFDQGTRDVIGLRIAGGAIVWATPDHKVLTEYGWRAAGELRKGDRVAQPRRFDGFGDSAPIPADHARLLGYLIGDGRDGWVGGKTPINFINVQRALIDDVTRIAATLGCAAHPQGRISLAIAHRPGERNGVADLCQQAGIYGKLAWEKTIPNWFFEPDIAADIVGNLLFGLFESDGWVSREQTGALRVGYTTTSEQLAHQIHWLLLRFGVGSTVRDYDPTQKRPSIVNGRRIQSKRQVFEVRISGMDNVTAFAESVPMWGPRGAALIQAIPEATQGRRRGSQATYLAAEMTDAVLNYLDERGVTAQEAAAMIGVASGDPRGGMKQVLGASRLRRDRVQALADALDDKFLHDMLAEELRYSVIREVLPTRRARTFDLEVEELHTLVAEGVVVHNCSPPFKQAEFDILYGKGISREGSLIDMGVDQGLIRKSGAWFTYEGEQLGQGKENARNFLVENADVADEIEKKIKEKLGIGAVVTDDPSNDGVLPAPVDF
The assay can be described thus: Fluorescence Cell-Free Homogeneous Dose Retest to Identify Inhibitors of RecA-Intein Splicing Activity. [Related pubchem assays (depositor defined):AID2097, AID2223, AID489010, AID492950].

The target of assay [3] is T3, Sentrin-specific protease 6 (Homo sapiens, UniProt Q9GZR1).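 Also: Luminescence-based dose-response confirmatory assay of SENP6 inhibition, following up an ultra-high-throughput screen.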
T3 sequence (Q9GZR1 whole entry): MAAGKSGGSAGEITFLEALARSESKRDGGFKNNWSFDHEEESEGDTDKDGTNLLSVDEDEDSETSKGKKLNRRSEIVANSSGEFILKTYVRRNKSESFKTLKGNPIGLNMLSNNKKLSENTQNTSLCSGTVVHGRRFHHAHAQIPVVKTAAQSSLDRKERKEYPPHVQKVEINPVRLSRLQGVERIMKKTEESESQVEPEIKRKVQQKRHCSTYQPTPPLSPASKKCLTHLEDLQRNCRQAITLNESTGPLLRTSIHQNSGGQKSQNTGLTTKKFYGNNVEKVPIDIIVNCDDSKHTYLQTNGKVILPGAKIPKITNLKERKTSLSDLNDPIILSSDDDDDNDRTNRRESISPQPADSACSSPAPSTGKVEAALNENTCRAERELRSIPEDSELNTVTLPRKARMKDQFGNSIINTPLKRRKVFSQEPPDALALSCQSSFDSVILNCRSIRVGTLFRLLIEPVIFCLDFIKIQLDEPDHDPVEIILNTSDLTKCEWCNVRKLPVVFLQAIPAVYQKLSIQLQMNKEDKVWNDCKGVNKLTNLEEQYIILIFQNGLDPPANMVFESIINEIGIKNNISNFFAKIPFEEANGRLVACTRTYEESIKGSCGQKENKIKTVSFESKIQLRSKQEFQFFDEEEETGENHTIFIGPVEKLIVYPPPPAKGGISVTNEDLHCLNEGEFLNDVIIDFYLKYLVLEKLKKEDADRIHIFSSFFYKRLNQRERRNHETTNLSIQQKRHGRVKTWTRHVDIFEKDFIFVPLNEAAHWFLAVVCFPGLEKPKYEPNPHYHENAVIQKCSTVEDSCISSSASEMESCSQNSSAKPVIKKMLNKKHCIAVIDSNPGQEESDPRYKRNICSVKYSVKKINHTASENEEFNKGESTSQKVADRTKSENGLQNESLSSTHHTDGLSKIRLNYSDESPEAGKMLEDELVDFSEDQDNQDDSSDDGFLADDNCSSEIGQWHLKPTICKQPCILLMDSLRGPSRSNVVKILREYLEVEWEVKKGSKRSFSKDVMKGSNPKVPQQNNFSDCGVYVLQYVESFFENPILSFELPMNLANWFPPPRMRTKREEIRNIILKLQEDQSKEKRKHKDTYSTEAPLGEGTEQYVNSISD

The source made the active and inactive calls. Rule as the data show it, for most assays here: actives have a measured IC50 and inactives only a lower limit.

What is called IC50 is the concentration at which inhibition is half-maximal. On to `COc1ccc(/C=C2\SC(=S)N(CCC(=O)Nc3ccc(C(=O)O)cc3)C2=O)cc1OC`, for which the half-maximal inhibitory concentration (IC50) in assay [1] is 312 nM (active). As a reminder, the EC50 is the midpoint of the concentration-response curve. `COc1ccc(Nc2ccc3c(c2)=NC2(CCCCC2)[N+]=3[O-])cc1`: the 50% effective concentration (EC50) in assay [2] is 4.39 µM (active). Further, in assay [3], the half-inhibitory concentration (IC50) was 6.28 µM (active).

(Values after ChEMBL document CHEMBL1201862, “PubChem BioAssay data set” (2004).)
